pKi: −log10 of the molar value.
Experiments:
Cathepsin D = Cathepsin D (Homo sapiens, UniProt P07339)
Description: Inhibition of human liver cathepsin D

Beta-secretase 1 = Beta-secretase 1 (Homo sapiens, UniProt P56817); assay: biochemical
Beta-secretase 1, sequence (P56817 whole entry): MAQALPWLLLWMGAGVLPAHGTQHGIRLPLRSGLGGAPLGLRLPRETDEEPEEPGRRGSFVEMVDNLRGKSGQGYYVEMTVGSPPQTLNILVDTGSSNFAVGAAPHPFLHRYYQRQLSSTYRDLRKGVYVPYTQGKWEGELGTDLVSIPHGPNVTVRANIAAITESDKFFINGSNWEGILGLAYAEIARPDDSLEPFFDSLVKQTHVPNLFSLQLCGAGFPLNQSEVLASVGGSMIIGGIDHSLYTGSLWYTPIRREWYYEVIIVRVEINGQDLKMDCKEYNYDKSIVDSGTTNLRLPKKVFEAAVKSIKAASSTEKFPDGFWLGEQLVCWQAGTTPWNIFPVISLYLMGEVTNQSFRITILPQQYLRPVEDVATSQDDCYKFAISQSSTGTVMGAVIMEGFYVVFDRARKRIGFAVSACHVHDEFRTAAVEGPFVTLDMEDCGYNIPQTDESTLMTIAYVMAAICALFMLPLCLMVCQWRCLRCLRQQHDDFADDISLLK
Description: Inhibition of human BACE1 expressed in Escherichia coli cells (BL21(DE3) by TRF assay

Cathepsin D, sequence (P07339 65-162 limits assumed): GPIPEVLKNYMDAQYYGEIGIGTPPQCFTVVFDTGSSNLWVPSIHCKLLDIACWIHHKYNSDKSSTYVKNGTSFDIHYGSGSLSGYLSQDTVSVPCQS
Cathepsin D, sequence (P07339 169-412 limits assumed): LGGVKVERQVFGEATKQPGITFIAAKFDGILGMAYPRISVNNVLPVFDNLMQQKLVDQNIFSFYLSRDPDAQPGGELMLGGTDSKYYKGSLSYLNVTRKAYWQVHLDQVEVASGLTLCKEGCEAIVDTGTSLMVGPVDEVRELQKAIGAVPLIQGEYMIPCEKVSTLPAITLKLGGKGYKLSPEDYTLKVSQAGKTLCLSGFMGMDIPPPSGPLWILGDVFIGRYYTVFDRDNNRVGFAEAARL

| pKi (Cathepsin D) | pKi (Beta-secretase 1) | Structure (SMILES) |
| --- | --- | --- |
| < 5.30 | 7.00 | CO[C@H](C[C@H](O)[C@H](COc1cc(F)cc(F)c1)NC(=O)c1cc(C(=O)N[C@H](C)c2ccccc2)cc(N(C)CS(C)(=O)=O)c1)C(=O)Nc1ccc(F)cc1 |
| – | 7.10 | CO[C@H](C[C@H](O)[C@H](COCc1cc(F)cc(F)c1)NC(=O)c1cc(C(=O)N[C@H](C)c2ccccc2)cc(N(C)CS(C)(=O)=O)c1)C(=O)N[C@H](C(=O)NCc1ccccc1)C(C)C |
| – | < 5.00 | CCCN(CCC)C(=O)c1cccc(C(=O)N[C@@H](COCc2cc(F)cc(F)c2)[C@@H](O)C[C@@H](OC)C(=O)NC2CC2)c1 |
| < 5.30 | 5.74 | CO[C@H](C[C@H](O)[C@H](COc1cc(F)cc(F)c1)NC(=O)c1cc(C(=O)N[C@H](C)c2ccccc2)cc(N(C)CS(C)(=O)=O)c1)C(=O)NC1CC1 |
| < 5.30 | 6.40 | CO[C@H](C[C@H](O)[C@H](COc1cc(F)cc(F)c1)NC(=O)c1cc(C(=O)N[C@H](C)c2ccccc2)cc(N(C)CS(C)(=O)=O)c1)C(=O)NCC(C)C |
| < 5.30 | 5.85 | CO[C@H](C[C@H](O)[C@H](COc1cc(F)cc(F)c1)NC(=O)c1cc(C(=O)N[C@H](C)c2ccccc2)cc(N(C)CS(C)(=O)=O)c1)C(=O)NCc1ccccc1 |
| < 5.30 | 6.70 | CO[C@H](C[C@H](O)[C@H](COc1cc(F)cc(F)c1)NC(=O)c1cc(C(=O)N[C@H](C)c2ccccc2)cc(N(C)CS(C)(=O)=O)c1)C(=O)Nc1ccccc1 |

Continued, compound first:

| Structure (SMILES) | pKi (Cathepsin D) | pKi (Beta-secretase 1) |
| --- | --- | --- |
| CO[C@H](C[C@H](O)[C@H](COc1ccccc1)NC(=O)c1cc(C(=O)N[C@H](C)c2ccccc2)cc(N(C)CS(C)(=O)=O)c1)C(=O)N[C@H](C(=O)NCc1ccccc1)C(C)C | 6.34 | 8.05 |
| CO[C@H](C[C@H](O)[C@H](COc1cc(F)cc(F)c1)NC(=O)c1cc(C(=O)N[C@H](C)c2ccccc2)cc(N(C)CS(C)(=O)=O)c1)C(=O)N[C@H](C(=O)NCc1ccccc1)C(C)C | 5.96 | > 9.00 |
| CO[C@H](C[C@H](O)[C@H](COCc1ccc(Br)cc1)NC(=O)c1cc(C(=O)N[C@H](C)c2ccccc2)cc(N(C)CS(C)(=O)=O)c1)C(=O)N[C@H](C(=O)NCc1ccccc1)C(C)C | – | 7.22 |
| CCCN(CCC)C(=O)c1cccc(C(=O)N[C@@H](COc2cc(F)cc(F)c2)[C@@H](O)C[C@@H](OC)C(=O)NC2CC2)c1 | – | 6.66 |
| CO[C@H](C[C@H](O)[C@H](COc1ccc(Br)cc1)NC(=O)c1cc(C(=O)N[C@H](C)c2ccccc2)cc(N(C)CS(C)(=O)=O)c1)C(=O)N[C@H](C(=O)NCc1ccccc1)C(C)C | 6.08 | 7.12 |

From ChEMBL document CHEMBL1157542, “Design and synthesis of potent and selective BACE-1 inhibitors” (J Med Chem, 2010)
